Patent US20070004660A1, “Synergistic Modulation of Flt3 Kinase Using Alkylquinolines and Alkylquinazolines” (priority 2005, published 2007)
Counter-ions that a name gives are not always drawn.

target: T1, wild-type FLT3 receptor (Homo sapiens, UniProt P36888); assay: Cell-based FLT3 receptor ELISA (FLT ligand-induced phosphorylation in Baf3 FLT3 cells); conditions: 100 ng/mL Flt ligand, uncertainty ±20%
T1 construct: host or cells: Baf3 (murine B cell lymphoma line), stably transfected
T1 sequence (P36888 27-993): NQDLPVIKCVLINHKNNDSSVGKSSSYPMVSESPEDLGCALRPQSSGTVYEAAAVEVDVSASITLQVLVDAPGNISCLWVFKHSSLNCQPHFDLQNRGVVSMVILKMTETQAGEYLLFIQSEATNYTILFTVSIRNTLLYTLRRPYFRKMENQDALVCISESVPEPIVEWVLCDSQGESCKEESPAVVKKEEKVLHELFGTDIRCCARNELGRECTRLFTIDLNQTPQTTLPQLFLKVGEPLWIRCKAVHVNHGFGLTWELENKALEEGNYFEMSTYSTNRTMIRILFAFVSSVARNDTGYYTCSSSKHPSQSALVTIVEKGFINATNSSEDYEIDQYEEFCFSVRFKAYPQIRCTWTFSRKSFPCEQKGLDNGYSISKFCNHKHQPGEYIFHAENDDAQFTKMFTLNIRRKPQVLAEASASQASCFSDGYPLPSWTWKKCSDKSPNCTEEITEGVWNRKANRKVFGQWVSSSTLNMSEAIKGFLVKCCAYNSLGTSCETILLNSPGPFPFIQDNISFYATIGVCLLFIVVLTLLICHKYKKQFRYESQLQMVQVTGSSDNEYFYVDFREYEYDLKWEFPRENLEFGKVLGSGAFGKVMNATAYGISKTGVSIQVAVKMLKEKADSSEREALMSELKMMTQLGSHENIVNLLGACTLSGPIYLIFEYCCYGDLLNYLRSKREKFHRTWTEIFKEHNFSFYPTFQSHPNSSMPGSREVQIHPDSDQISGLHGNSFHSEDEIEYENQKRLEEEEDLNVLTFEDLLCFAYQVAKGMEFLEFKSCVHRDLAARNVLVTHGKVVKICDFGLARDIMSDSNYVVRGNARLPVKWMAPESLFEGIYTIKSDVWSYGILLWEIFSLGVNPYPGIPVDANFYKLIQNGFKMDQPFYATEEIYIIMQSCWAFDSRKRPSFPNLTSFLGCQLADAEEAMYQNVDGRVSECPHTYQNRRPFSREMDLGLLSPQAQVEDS
Summary of the method: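 Receptor phosphotyrosine measured by sandwich ELISA (anti-FLT3 capture, HRP anti-pTyr, luminescence) in FLT3-transfected murine Baf3 cells given 1 h compound pretreatment and 10 min 100 ng/mL FLT ligand after overnight low-serum starvation; triplicates, IC50 from nonlinear regression.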

O=C(Nc1ccc(N2CCCC2)cc1)N1CCC(c2ncnc3cc(N4CCNC4=O)ccc23)CC1 [Compound 178, 4-[7-(2-Oxo-imidazolidin-1-yl)-quinazolin-4-yl]-piperidine-1-carboxylic acid (4-pyrrolidin-1-yl-phenyl)-amide] was tested. Which IC50 did it give?
The IC50 was 4 nM.

O=C(Nc1ccc(N2CCCC2)cc1)N1CCC(c2ncnc3cc(N4CCCC4)ccc23)CC1 [Compound 179, 4-(7-Pyrrolidin-1-yl-quinazolin-4-yl)-piperidine-1-carboxylic acid (4-pyrrolidin-1-yl-phenyl)-amide] was tested. Which IC50 did it give?
The IC50 was 49 nM.

O=C(Nc1ccc(N2CCCC2)cc1)N1CCC(c2ncnc3cc(-n4ccnc4)ccc23)CC1 [Compound 180, 4-(7-Imidazol-1-yl-quinazolin-4-yl)-piperidine-1-carboxylic acid (4-pyrrolidin-1-yl-phenyl)-amide] was tested. Which IC50 did it give?
The IC50 was 10 nM.

For O=C(Nc1ccc(N2CCCC2)cc1)N1CCC(c2ncnc3cc(N4CCOCC4)ccc23)CC1 [Compound 181, 4-(7-Morpholin-4-yl-quinazolin-4-yl)-piperidine-1-carboxylic acid (4-pyrrolidin-1-yl-phenyl)-amide], which IC50 is on record?
Its IC50 is 5 nM.

Which IC50 does the source give for O=C(Nc1ccc(N2CCCC2)cc1)N1CCC(c2ncnc3cc(N4CCSCC4)ccc23)CC1 [Compound 182, 4-(7-Thiomorpholin-4-yl-quinazolin-4-yl)-piperidine-1-carboxylic acid (4-pyrrolidin-1-yl-phenyl)-amide] here?
Its IC50 is 24 nM.

How did the IC50 turn out when O=C1CN(c2ccc3c(C4CCN(C(=O)Nc5ccc(N6CCCC6)cc5)CC4)ncnc3c2)CCN1 [Compound 183, 4-[7-(3-Oxo-piperazin-1-yl)-quinazolin-4-yl]-piperidine-1-carboxylic acid (4-pyrrolidin-1-yl-phenyl)-amide] was run?
Its IC50 is 31 nM.

CN1CCN(c2ccc3c(C4CCN(C(=O)Nc5ccc(N6CCCC6)cc5)CC4)ncnc3c2)CC1=O [Compound 184, 4-[7-(4-Methyl-3-oxo-piperazin-1-yl)-quinazolin-4-yl]-piperidine-1-carboxylic acid (4-pyrrolidin-1-yl-phenyl)-amide] was tested. Which IC50 did it give?
Its IC50 is 98 nM.

O=C(Nc1ccc(N2CCCC2)cc1)N1CCC(c2ncnc3cc(N4CCN(CCO)CC4)ccc23)CC1 [Compound 185, 4-{7-[4-(2-Hydroxy-ethyl)-piperazin-1-yl]-quinazolin-4-yl}-piperidine-1-carboxylic acid (4-pyrrolidin-1-yl-phenyl)-amide] was tested. Which IC50 did it give?
Its IC50 is 1 nM.

COCCN1CCN(c2ccc3c(C4CCN(C(=O)Nc5ccc(N6CCCC6)cc5)CC4)ncnc3c2)CC1 [Compound 186, 4-{7-[4-(2-Methoxy-ethyl)-piperazin-1-yl]-quinazolin-4-yl}-piperidine-1-carboxylic acid (4-pyrrolidin-1-yl-phenyl)-amide] was tested. Which IC50 did it give?
Its IC50 is 3 nM.

CCN1CCN(c2ccc3c(C4CCN(C(=O)Nc5ccc(N6CCCC6)cc5)CC4)ncnc3c2)CC1 [Compound 187, 4-[7-(4-Ethyl-piperazin-1-yl)-quinazolin-4-yl]-piperidine-1-carboxylic acid (4-pyrrolidin-1-yl-phenyl)-amide] was tested. Which IC50 did it give?
The IC50 was 12 nM.

For O=C(Nc1ccc(N2CCCC2)cc1)N1CCC(c2ncnc3cc(OCC4CCOCC4)ccc23)CC1 [Compound 188, 4-[7-(Tetrahydro-pyran-4-ylmethoxy)-quinazolin-4-yl]-piperidine-1-carboxylic acid (4-pyrrolidin-1-yl-phenyl)-amide], which IC50 is on record?
The IC50 was 93 nM.

With O=C(Nc1ccc(N2CCCC2)cc1)N1CCC(c2ncnc3cc(OC4CCOCC4)ccc23)CC1 [Compound 189, 4-[7-(Tetrahydro-pyran-4-yloxy)-quinazolin-4-yl]-piperidine-1-carboxylic acid (4-pyrrolidin-1-yl-phenyl)-amide] as the compound, how does the IC50 read?
Its IC50 is 104 nM.

Which IC50 does the source give for O=C(Nc1ccc(N2CCCC2)cc1)N1CCC(c2ncnc3cc(O[C@H]4CCOC4)ccc23)CC1 [Compound 190, (S)-4-[7-(Tetrahydro-furan-3-yloxy)-quinazolin-4-yl]-piperidine-1-carboxylic acid (4-pyrrolidin-1-yl-phenyl)-amide] here?
Its IC50 is 109 nM.

For O=C(Nc1ccc(N2CCCC2)cc1)N1CCC(c2ncnc3cc(O[C@@H]4CCOC4)ccc23)CC1 [Compound 191, (R)-4-[7-(Tetrahydro-furan-3-yloxy)-quinazolin-4-yl]-piperidine-1-carboxylic acid (4-pyrrolidin-1-yl-phenyl)-amide], which IC50 is on record?
The IC50 was 144 nM.

O=C(Nc1ccc(N2CCCC2)cc1)N1CCC(c2ncnc3cc(N4CCN(c5ccccn5)CC4)ccc23)CC1 [Compound 192, 4-[7-(4-Pyridin-2-yl-piperazin-1-yl)-quinazolin-4-yl]-piperidine-1-carboxylic acid (4-pyrrolidin-1-yl-phenyl)-amide] was tested. Which IC50 did it give?
The IC50 was 1 nM.

With O=C(Nc1ccc(N2CCCC2)cc1)N1CCC(c2ncnc3cc(N4CCN(c5ncccn5)CC4)ccc23)CC1 [Compound 193, 4-[7-(4-Pyrimidin-2-yl-piperazin-1-yl)-quinazolin-4-yl]-piperidine-1-carboxylic acid (4-pyrrolidin-1-yl-phenyl)-amide] as the compound, how does the IC50 read?
The IC50 was 3 nM.

O=C(Nc1ccc(N2CCCC2)cc1)N1CCC(c2ncnc3cc(N4CCN(c5ccncc5)CC4)ccc23)CC1 [Compound 194, 4-[7-(4-Pyridin-4-yl-piperazin-1-yl)-quinazolin-4-yl]-piperidine-1-carboxylic acid (4-pyrrolidin-1-yl-phenyl)-amide] was tested. Which IC50 did it give?
The IC50 was 11 nM.

For O=C(Nc1ccc(N2CCCC2)cc1)N1CCC(c2ncnc3cc(N4CCC(F)CC4)ccc23)CC1 [Compound 195, 4-[7-(4-Fluoro-piperidin-1-yl)-quinazolin-4-yl]-piperidine-1-carboxylic acid (4-pyrrolidin-1-yl-phenyl)-amide], which IC50 is on record?
The IC50 was 81 nM.

How did the IC50 turn out when O=C(Nc1ccc(N2CCOCC2)cc1)N1CCC(c2ncnc3cc(N4CCC(F)CC4)ccc23)CC1 [Compound 196, 4-[7-(4-Fluoro-piperidin-1-yl)-quinazolin-4-yl]-piperidine-1-carboxylic acid (4-morpholin-4-yl-phenyl)-amide] was run?
The IC50 was 3 nM.

For O=C(Nc1ccc(N2CCOCC2)cc1)N1CCC(c2ncnc3cc(N4CCNC4=O)ccc23)CC1 [Compound 197, 4-[7-(2-Oxo-imidazolidin-1-yl)-quinazolin-4-yl]-piperidine-1-carboxylic acid (4-morpholin-4-yl-phenyl)-amide], which IC50 is on record?
The IC50 was 78 nM.

With CCNC(=O)N1CCN(c2ccc3c(C4CCN(C(=O)Nc5ccc(N6CCCC6)cc5)CC4)ncnc3c2)CC1 [Compound 199, 4-{4-[1-(4-Pyrrolidin-1-yl-phenylcarbamoyl)-piperidin-4-yl]-quinazolin-7-yl}-piperazine-1-carboxylic acid ethylamide] as the compound, how does the IC50 read?
Its IC50 is 40 nM.

Which IC50 does the source give for O=C(CO)N1CCN(c2ccc3c(C4CCN(C(=O)Nc5ccc(N6CCCC6)cc5)CC4)ncnc3c2)CC1 [Compound 201, 4-{7-[4-(2-Hydroxy-acetyl)-piperazin-1-yl]-quinazolin-7-yl}-piperidine-1-carboxylic acid (4-pyrrolidin-1-yl-phenyl)-amide] here?
Its IC50 is 65 nM.

For CN1CCN(CCOc2ccc3c(C4CCN(C(=O)Nc5ccc(N6CCCC6)cc5)CC4)ncnc3c2)CC1=O [Compound 202, 4-{7-[2-(4-Methyl-3-oxo-piperazin-1-yl)-ethoxy]-quinazolin-4-yl}-piperidine-1-carboxylic acid (4-pyrrolidin-1-yl-phenyl)-amide], which IC50 is on record?
Its IC50 is 15 nM.

Which IC50 does the source give for CN1CCN(CCCOc2cc3ncnc(C4CCN(C(=O)Nc5ccc(N6CCOCC6)cc5)CC4)c3cc2F)CC1 [Compound 205, 4-{6-Fluoro-7-[3-(4-methyl-piperazin-1-yl)-propoxy]-quinazolin-4-yl}-piperidine-1-carboxylic acid (4-morpholin-4-yl-phenyl)-amide] here?
The IC50 was 6 nM.

Which IC50 does the source give for COc1cc2ncnc(C3CCN(C(=O)Nc4ccc(OC(C)C)cc4)CC3)c2cc1OC [Example 1, 4-(6,7-Dimethoxy-quinazolin-4-yl)-piperidine-1-carboxylic acid (4-isopropoxy-phenyl)-amide hydrochloride] here?
Its IC50 is 17 nM.

CC(C)Oc1ccc(NC(=O)N2CCC(c3ncnc4ccc(C#CCN5CCOCC5)cc34)CC2)cc1 [Example 15, 4-[6-(3-Morpholin-4-yl-prop-1-ynyl)-quinazolin-4-yl]-piperidine-1-carboxylic acid (4-isopropoxy-phenyl)-amide] was tested. Which IC50 did it give?
The IC50 was 55 nM.

With CC(C)c1ccc(NC(=O)CN2CCC(c3ncnc4ccccc34)CC2)cc1 [Example 16, N-(4-Isopropyl-phenyl)-2-(4-quinazolin-4-yl-piperidin-1-yl)-acetamide] as the compound, how does the IC50 read?
Its IC50 is 336 nM.

With COc1cc2ncnc(C3CCN(C(=O)Nc4ccc(OC5CCC5)nc4)CC3)c2cc1OC [Example 17, 4-(6,7-Dimethoxy-quinazolin-4-yl)-piperidine-1-carboxylic acid (6-cyclobutoxy-pyridin-3-yl)-amide] as the compound, how does the IC50 read?
Its IC50 is 292 nM.
